PMC10907494, “Applications of biaryl cyclization in the synthesis of cyclic enkephalin analogs with a highly restricted flexibility” (Amino Acids, 2024)
Marks after values point to notes of the source that are not given here.

Molecular target: μ-opioid receptor (MOR) (Rattus norvegicus, UniProt P33535)
Assay: biochemical
Settings: for Radioligand SB at 30 μM of ligand (% of radioligand specific binding): mean and standard deviation; for % of radioligand specific binding at 3 μM, mean / % of radioligand specific binding at 10 μM, mean / % of radioligand specific binding at 30 μM, mean: initial screening; for MOR binding, times weaker than that of the linear counterpart: ratio of IC50 values, cyclic analog vs its linear counterpart
Procedure: The binding affinity of cyclic and linear enkephalin analogs for μ-opioid receptor (MOR) was determined in competitive radioligand binding assays using membrane preparations from rat brain homogenates. The homogenates were obtained as described previously (Matalińska et al. [2020]). The membrane preparations were incubated at 25 °C for 60 min in the presence of 1.0 nM [^3H]DAMGO (obtained from PerkinElmer, USA) and the set of concentrations of the assayed compound proper for a particular compound and type of determination (screening or a full-displacement curve).
For screening purposes, we performed the experiments with the following concentrations of the compounds tested: 30 μM, 10 μM, and 3 μM. For full-displacement curves, 10 concentrations ranging either from 0.03 nM to 1 μM or from 300 nM to 30 μM were used. The range was chosen for the single compounds in a manner such that the expected IC50 would fall in the middle of the range. In the case of several experiments, only five concentrations were used (they are marked in the results table).
Non-specific binding was measured in the presence of 10 μM naloxone. The assays were conducted with the assay buffer made of 50 mM Tris–HCl (pH 7.4), bacitracin (100 μg/ml), bestatin (30 μM), and captopril (10 μM), phenylmethylsulfonyl fluoride (PMSF, 30 μg/ml) in a total volume of 0.5 ml. After the incubation, a rapid filtration with a M-24 Cell Harvester (Brandel/USA) through GF/B Whatman glass fiber strips was conducted. The filters were soaked with 0.5% PEI just before the harvesting so as to minimize the extent of non-specific binding. Filter disks were cut from the sheet and placed separately in 24-well plates. The Optiphase Supermix scintillation solution (Perkin Elmer, USA) was added to each well. Radioactivity was measured in a scintillation counter MicroBeta LS, Trilux (PerkinElmer, USA). Displacement curves were drawn and the mean IC50 values were determined with SEMs (GraphPad Prism v. 5.0, San Diego, CA).

[1] = IC50 (estimation based on the screening results), estimated from screening at 30 μM, 10 μM and 3 μM, [3H]DAMGO, rat brain membranes
[2] = IC50 ± S.E.M., full-displacement curves, 1.0 nM [3H]DAMGO, rat brain membranes, 25 °C, 60 min, mean of 2 or 3 experiments unless footnoted
[3] = estimated IC50, estimated from initial screening at 30, 10 and 3 μM

μ-opioid receptor (MOR), sequence (P33535 whole entry): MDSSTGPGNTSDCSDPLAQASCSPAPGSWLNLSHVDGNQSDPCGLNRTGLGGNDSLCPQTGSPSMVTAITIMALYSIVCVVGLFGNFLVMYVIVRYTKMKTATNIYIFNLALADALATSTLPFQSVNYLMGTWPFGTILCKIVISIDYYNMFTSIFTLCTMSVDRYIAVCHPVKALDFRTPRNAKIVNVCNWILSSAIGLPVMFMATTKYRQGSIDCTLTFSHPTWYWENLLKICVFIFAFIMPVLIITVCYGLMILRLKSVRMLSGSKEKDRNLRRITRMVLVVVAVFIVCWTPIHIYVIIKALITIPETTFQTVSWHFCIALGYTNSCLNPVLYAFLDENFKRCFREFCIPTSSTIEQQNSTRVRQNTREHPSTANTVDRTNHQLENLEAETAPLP

| Molecule | Radioligand SB at 30 μM of ligand (% of radioligand specific binding) ([3H]DAMGO) | IC50 [1] | % of radioligand specific binding at 3 μM, mean | % of radioligand specific binding at 10 μM, mean | % of radioligand specific binding at 30 μM, mean | IC50 [2] | MOR binding, times weaker than that of the linear counterpart | IC50 [3] | MOR binding reduced, times, compared to the parent [Leu^5]enk-NH2 (ratio of IC50 values vs [Leu^5]enk-NH2) |
| --- | --- | --- | --- | --- | --- | --- | --- | --- | --- |
| CC(C)C[C@H](NC(=O)[C@@H]1Cc2ccc(cc2)-c2ccc(cc2)C[C@H](N)C(=O)NCC(=O)NCC(=O)N1)C(N)=O [c-(Phe-p-Phe-p)-L-NH2, H-(cyclo-p,p)-[Phe-Gly-Gly-Phe]-Leu-NH2] | 73 ± 19% | > 30000 nM | 110% | 78% | 73% | – | – | – | – |
| CC(C)C[C@H](NC(=O)[C@@H]1Cc2ccc(O)c(c2)-c2ccc(cc2)C[C@H](N)C(=O)NCC(=O)NCC(=O)N1)C(N)=O [c-(Phe-p-Tyr-m)-L-NH2, H-(cyclo-p,m)-[Phe-Gly-Gly-Tyr]-Leu-NH2] | 17 ± 3% | – | 62^c) % | 34^c) % | 17^c) % | 6670 ± 262 nM | – | – | – |
| CC(C)C[C@H](NC(=O)[C@@H]1Cc2cccc(c2)-c2cc(ccc2O)C[C@H](N)C(=O)NCC(=O)NCC(=O)N1)C(N)=O [c-(Tyr-m-Phe-m)-L-NH2, H-(cyclo-m,m)-[Tyr-Gly-Gly-Phe]-Leu-NH2] | 12 ± 3% | – | 64% | 28% | 12% | 3080 nM | ~500 times | – | – |
| CC(C)C[C@H](NC(=O)[C@@H]1Cc2ccc(cc2)-c2cc(ccc2O)C[C@H](N)C(=O)NCC(=O)NCC(=O)N1)C(N)=O [c-(Tyr-m-Phe-p)-L-NH2, H-(cyclo-m,p)-[Tyr-Gly-Gly-Phe]-Leu-NH2] | 77 ± 4% | > 30000 nM | 99% | 78% | 77% | – | – | – | – |
| CSCC[C@H](NC(=O)[C@@H]1Cc2ccc(cc2)-c2cc(ccc2O)C[C@H](N)C(=O)NCC(=O)NCC(=O)N1)C(N)=O [c-(Tyr-m-Phe-p)-M-NH2, H-(cyclo-m,p)-[Tyr-Gly-Gly-Phe]-Met-NH2] | 12 ± 4% | – | 49% | 34% | 12% | 1370 ± 266 nM | ~500 times | ~1000 nM | – |
| CC(C)C[C@H](NC(=O)[C@@H]1Cc2ccc(O)c(c2)-c2cc(ccc2O)C[C@H](N)C(=O)NCC(=O)NCC(=O)N1)C(N)=O [c-(Tyr-m-Tyr-m)-L-NH2, H-(cyclo-m,m)-[Tyr-Gly-Gly-Tyr]-Leu-NH2] | 117 ± 1% | > 30000 nM | 87% | 102% | 117% | – | – | – | – |
| H-(cyclo-m,p)-[Tyr-Gly-Gly-Phe]-Leu-OH [c-(Tyr-m-Phe-p)-L-OH] | 36 ± 6% | – | 88% | 60% | 36% | – | – | – | – |
| H-FGGFL-NH2 [[Phe^1,Leu^5]enk-NH2, H-Phe-Gly-Gly-Phe-Leu-NH2, reference compound] | 5 ± 1% | – | 26^c) % | 13^c) % | 5^c) % | 596 ± 48.8 nM | – | < 3000 nM | – |
| H-Phe-Gly-Gly-Tyr-Leu-NH2 (H-FGGYL-NH2) [[Phe^1,Tyr^4,Leu^5]enk-NH2, reference compound] | 43 ± 11% | – | 85% | 61% | 43% | – | – | – | – |
| H-YGGYL-NH2 [[Tyr^4,Leu^5]enk-NH2, H-Tyr-Gly-Gly-Tyr-Leu-NH2, reference compound] | – | – | – | – | – | 222 ± 15.9 nM | – | – | about 40 times |
